Data as given in patent publication US8946482B2, “Salts of rasagiline and pharmaceutical preparations thereof” (Ratiopharm GmbH, priority 2009, dated 2015).
Where two headings read alike, the source gives them in different places.

Settings: for physical state of the salt: room temperature
Description: The term “liquid” means that the salt is in a state of matter where the particles are loose and can freely form a distinct surface at the boundaries of the bulk material. The liquid's shape is determined by the container it fills. The liquid can be of low or high viscosity, e.g. in the form of an oil or thick oil.
The liquid salt of the present invention can be prepared by mixing rasagiline and the acid and recovering the salt. […] Efficient mixing can be mediated by the use of a mixer mill. Alternatively, the rasagiline and the acid can be mixed in the presence of a solvent. In this case, either the rasagiline or the acid or the rasagiline and the acid can be suspended or dissolved in the same or different solvents before mixing. For example, first the rasagiline can be dissolved in the solvent and then the acid is added to this solution. Suitable solvents are, e.g., water, tetrahydrofurane, isopropyl alcohol, acetone, diisopropyl ether, and mixtures thereof. Preferred solvents are diisopropyl ether and acetone.
In the following table 1, the reference examples and examples of the present invention are summarized: […]

Row | Molecule | physical state of the salt | also measured
1 | C#CCN[C@@H]1CCc2ccccc21 [Ex. 3, Rasagiline Propanoate] |  | physical state of the salt at 0° C. (0° C.): solid; physical state of the salt (listed as Rasagiline propionate): oil
2 | C#CCNC1CCc2ccccc21.O=C1NS(=O)(=O)c2ccccc21 (stereo not shown) [Ref. Ex. 5, Rasagiline Saccharinate] | solid | 
3 | C#CCN[C@@H]1CCc2ccccc21 [Ref. Ex. 7, Rasagiline Lauryl Sulphate] | solids | 
4 | C#CCN[C@@H]1CCc2ccccc21 [Ref. Ex. 8, Rasagiline 4-dodecylbenzenesulfonate] |  | physical state of the salt (listed as rasagiline dodecyl benzene sulphonate): solids
5 | C#CCN[C@@H]1CCc2ccccc21.CC(=O)O [Ref. Ex. 9, Rasagiline Acetate] | crystalline solid | 
6 | Rasagiline Docusate [Ref. Ex. 6] | solid wax | 
